Reference: US20210030005A1, “BENZOXABOROLE COMPOSITIONS HAVING A GROWTH ENHANCING EFFECT” (BORAGEN, INC., priority 2018, published 2021)

Columns and labels:
[1] = tested on: Asian Soybean Rust (Phakopsora pachyrhizi); assay: Field trial, Asian Soybean Rust severity on soybean; type: in vivo
Procedure: (§1) In this example, diseased soybeans having Asian Soybean Rust (Phakopsora pachyrhizi) were treated with BAG8 and Azoxystrobin. Testing was performed to assess the fungicidal effect of the compounds on Asian Soybean Rust and to assess the growth enhancing effects of the compounds on the diseased soybeans.
(§2) Soybeans were planted into 6×30 ft plots and replicated four times in a randomized complete block design. Two treatments and an untreated control were tested for efficacy against Asian Soybean Rust (Phakopsora pachyrhizi) and assessed for yield at the conclusion of the growing season. Foliar applications of the two treatments, BAG8 at 0.25 pounds of active ingredient per acre and azoxystrobin at 0.25 pounds of active ingredient per acre, were applied to the plots at two separate times: growth stage R1 (flowering) and growth stage R3 (bean pod formation). Best practices were used consistently across the test plots with regard to field conditions such as fertilization, insect control, weed control, and irrigation. Disease assessments were taken in each plot 28 days after the final foliar fungicide application. At maturity, each plot was harvested using standard harvesting equipment. After shelling, the beans were weighed at 13% moisture and yield calculations extrapolated to bushels per acre.
(§3) Analysis of variance (ANOVA) was used to examine disease severity data and means were separated using Fisher's least significant difference (LSD) method at α=0.05. […]

diseased soybeans = assay: Field trial, yield of diseased soybeans; type: in vivo, soybean
Procedure: as §1, §2, §3

[2] = tested on: Southern Rust of Maize (Puccinia polysora); assay: Field trial, Southern Rust of Maize severity on maize; type: in vivo
Procedure: (§4) In this example, diseased maize having Southern Rust of Maize (Puccinia polysora) was treated with BAG8, Azoxystrobin, and Boscalid. Testing was performed to assess the fungicidal effect of the compounds on Southern Rust of Maize (Puccinia polysora) and to assess the growth enhancing effect of the compounds on the diseased maize.
(§5) Maize was planted into 6×30 ft plots and replicated four times in a randomized complete block design. Three treatments and an untreated control were tested for efficacy against Southern Rust of Maize (Puccinia polysora) and assessed for yield at the conclusion of the growing season. Foliar applications of the three treatments, BAG8 at 0.25 pounds of active ingredient per acre, azoxystrobin at 0.25 pounds of active ingredient per acre, and boscalid at 0.24 pounds of active ingredient per acre, were applied to the plots at growth stage V8. Best practices were used consistently across the test plots with regard to field conditions such as fertilization, insect control, weed control, and irrigation. Disease assessments were taken in each plot 28 days after the foliar fungicide application. At maturity, each plot was harvested using standard harvesting equipment. After shelling, the kernels were weighed at 11% moisture and yield calculations extrapolated to bushels per acre.
as §3

diseased maize = assay: Field trial, yield of diseased maize; type: in vivo; details: for Yield: 11% moisture
Procedure: as §4, §5, §3

Tomato = details: Davis et al. 2003, cited from earlier work

With `CO/C=C(/C(=O)OC)c1ccccc1Oc1cc(Oc2ccccc2C#N)ncn1` [Azoxystrobin, reference compound] the “reduced disease in comparison to untreated control” value ([1]; 0.25 lb ai/A foliar) was 66%, the “Disease Severity (% Leaf Coverage)” value ([1]; 0.25 lb ai/A foliar at R1 and R3, 28 days after final application) was 30.6 d % Leaf Coverage and the increased soybean yield (diseased soybeans; 0.25 lb ai/A foliar) was 305%. For the same compound, the Yield (diseased soybeans; 0.25 lb ai/A foliar at R1 and R3, harvest at maturity, 13% moisture) was 59.2 a bu/A, the “reduced disease relative to the untreated control” value ([2]; 0.25 lb ai/A foliar) was 100% and the “Disease Severity (% Leaf Coverage)” value ([2]; 0.25 lb ai/A foliar at V8, 28 days after application) was 0.0 c % Leaf Coverage. The “increased yield relative to untreated control” value (diseased maize; 0.25 lb ai/A foliar) was 205% and the Yield (diseased maize; 0.25 lb ai/A foliar at V8, harvest at maturity) was 151.1 a bu/A.

With `O=C(Nc1ccccc1-c1ccc(Cl)cc1)c1cccnc1Cl` [Boscalid] the “Disease Severity (% Leaf Coverage)” value ([2]; 0.24 lb ai/A foliar at V8, 28 days after application) was 25.1 b % Leaf Coverage and the Yield (diseased maize; 0.24 lb ai/A foliar at V8, harvest at maturity) was 91.6 c bu/A.

For `OB(O)O` [boric acid], the “yield and shelf-life of harvested tomatoes” value (Tomato) is given as “higher yield and longer shelf-life for harvested tomatoes” and the “growth of the plant” value (Tomato; hydroponic fertilizer) is given as “increased growth of the plant, plant parts, and plant propagation materials”.
